ChEMBL document CHEMBL1121775, “Synthesis and antimalarial effects of N2-aryl-N4-[(dialkylamino)alkyl]- and N4-aryl-N2-[(dialkylamino)alkyl]-2,4-quinazolinediamines” (J Med Chem, 1981)
Several values for one entry are separate records, joined by “and”; a condition that tells them apart may be missing. Equal values may be shown once.

Tests used:
[1] = system: Plasmodium berghei; assay: Antimalarial effect against trophozoite-induced Plasmodium berghei in mice (Mus musculus) after 20 mg/kg subcutaneous dose; type: functional
[2] = system: Plasmodium berghei; assay: Antimalarial effect against trophozoite-induced Plasmodium berghei in mice (Mus musculus) at 320 mg/kg subcutaneous dose; type: functional
[3] = system: Plasmodium berghei; assay: (§1) Antimalarial effect against trophozoite-induced Plasmodium berghei in mice (Mus musculus) at 640 mg/kg subcutaneous dose; type: functional
[4] = system: Plasmodium berghei; assay: Antimalarial effect against trophozoite-induced Plasmodium berghei in mice (Mus musculus) at 160 mg/kg subcutaneous dose; type: functional
[5] = system: Plasmodium berghei; assay: Antimalarial effect against trophozoite-induced Plasmodium berghei in mice (Mus musculus) at 80 mg/kg subcutaneous dose; type: functional
[6] = system: Mus musculus; assay: Number of mice cured at a dose of 640 mg/kg sc; type: functional; settings: route subcutaneous
[7] = system: Plasmodium berghei; assay: Antimalarial effect against trophozoite-induced Plasmodium berghei in mice (Mus musculus) after 40 mg/kg subcutaneous dose; type: functional
[8] = system: Plasmodium berghei; assay: Antimalarial activity against trophozoite-induced Plasmodium berghei in mice (Mus musculus) at 160 mg/kg subcutaneous dose; type: functional
[9] = system: Plasmodium berghei; assay: Antimalarial activity against trophozoite-induced Plasmodium berghei in mice (Mus musculus); type: functional
[10] = system: Mus musculus; assay: Number of mice cured at a subcutaneous dose of 160 mg/kg.; type: functional
[11] = system: Mus musculus; assay: Number of toxic deaths at a dose of 640 mg/kg; type: toxicity, organism-based; design: dose 640 mg/kg; settings: in vivo
[12] = The ratio of SD90 of the quinine hydrochloride, to the SD90 of the test substance for the Dose of 47 mg/kg; type: functional
[13] = system: Mus musculus; assay: Number of mice cured at a subcutaneous dose of 320 mg/kg.; type: functional
[14] = system: Mus musculus; assay: Number of toxic deaths at a dose of 320 mg/kg; type: toxicity, organism-based; design: dose 320 mg/kg; settings: in vivo
[15] = The ratio of SD90 of the quinine hydrochloride, to the SD90 of the test substance for the Dose of 35 mg/kg; type: functional
[16] = The ratio of SD90 of the quinine hydrochloride, to the SD90 of the test substance for the Dose of mg/kg; type: functional
[17] = The ratio of SD90 of the quinine hydrochloride, to the SD90 of the test substance for the Dose of 9.2 mg/kg; type: functional
[18] = system: Plasmodium berghei; assay: as §1; type: functional; remark: listed apart in the source
[19] = The ratio of SD90 of the quinine hydrochloride, to the SD90 of the test substance for the Dose of 63 mg/kg; type: functional
[20] = system: Mus musculus; assay: Antimalarial effect against trophozoite induced Plasmodium berghei in mice (Mus musculus) at dosage of 160 mg/kg after subcutaneous administration; No. of mice (Mus musculus) surviving after 60 days 1; type: functional
[21] = The ratio of SD90 of the quinine hydrochloride, to the SD90 of the test substance for the Dose of 82 mg/kg; type: functional
[22] = The ratio of SD90 of the quinine hydrochloride, to the SD90 of the test substance for the Dose of 91 […]; type: functional
[23] = system: Mus musculus; assay: Antimalarial effect against trophozoite-induced Plasmodium berghei in mice (Mus musculus) at dosage of 640 mg/kg after subcutaneous administration; No. of mice (Mus musculus) surviving after 60 days 4; type: functional

SMILES	MST [1] [days]	MST [2] [days]	MST ([4]; 160 mg/kg)	MST [5] [days]	No. of survivals [6]	MST [7] [days]	SD90 [9] [mg/kg/day]	No. of survivals [13]	MST ([7]; 40 mg/kg)	MST [4] [days]	further results
CCN(CC)CCCNc1nc(Nc2cc(Cl)cc(Cl)c2)c2ccccc2n1	0.2	5	3 days and 2.7 days	1.4	2	–	–	–	–	–	MST ([3]; 640 mg/kg): 14.5 days and 15.7 days
CCN(CC)CCNc1nc(Nc2ccc(Cl)c(Cl)c2)nc2ccc(N)cc12	–	–	–	6.8	3	3.8	47	5	–	–	MST ([1]; 20 mg/kg): 1.6 days and 2 days; MST [8]: 29.8 days; No. of survivals [10]: 4; No. of toxic deaths [11]: 2; Ratio [12]: 1.6
CN(C)C1CCC(Nc2nc(Nc3ccc(Cl)c(Cl)c3)c3ccccc3n2)CC1 (stereo not drawn)	0.3	9.9	–	7.9	3	–	–	2	4.1 days and 3.7 days	12.9	MST [8]: 12.6 days; No. of survivals [10]: 2; No. of toxic deaths [11]: 2
CCN(CC)CCNc1nc(Nc2ccc(Cl)cc2)nc2ccccc12	1.6	–	–	6.2	5	–	35	3	4.1 days and 4.6 days	11.1	No. of survivals [10]: 2; No. of toxic deaths [14]: 2; Ratio [15]: 2.1
CCN1CCC(CNc2nc(Nc3ccc(Cl)c(Cl)c3)c3ccccc3n2)CC1	–	–	–	–	5	2.1	–	5	–	–	MST ([1]; 20 mg/kg): 0.5 days and 0.7 days; MST [8]: 6.94 days; MST ([5]; 80 mg/kg): 6.7 days and 6.9 days; No. of survivals [10]: 1
CCN(CC)C1CCC(Nc2nc(Nc3cccc(Br)c3)c3ccccc3n2)CC1 (stereo not drawn)	–	–	10.3 days and 10.1 days	–	–	–	–	–	0.3 days and 0.5 days	–	MST ([1]; 20 mg/kg): 0.3 days and 0.5 days; MST ([2]; 320 mg/kg): 12.9 days and 12.7 days; MST ([5]; 80 mg/kg): 2.5 days and 2.7 days; No. of survivals ([6]; 640 mg/kg): 3 and 2
CCN(CC)CCNc1nc(Nc2ccc(Cl)c(Cl)c2)nc2cc(N)ccc12	–	–	13.2 days and 13.5 days	–	4	–	30.5	3	3.2 days and 3.5 days	–	MST ([1]; 20 mg/kg): 0.6 days and 0.9 days; MST ([2]; 320 mg/kg): 16.8 days and 16.9 days; MST [3]: 29.8 days; MST ([5]; 80 mg/kg): 6 days and 6.3 days; Ratio [16]: 30.5
CN(C)C1CCC(Nc2nc(Nc3ccc(Cl)c(Cl)c3)nc3ccccc23)CC1 (stereo in doubt; 24)	–	–	–	6.4	–	–	9.2	3	4.8 days and 3.8 days	–	MST ([1]; 20 mg/kg): 0.4 days; MST ([2]; 320 mg/kg): 24.3 days; MST ([8]; 160 mg/kg): 20.1 days and 16.5 days; No. of survivals ([10]; 160 mg/kg): 1 and 2; Ratio [17]: 8.2
CCN(CC)C1CCC(Nc2nc(Nc3ccc(C(F)(F)F)cc3)c3ccccc3n2)CC1 (stereo not drawn)	–	–	9.7 days and 9.5 days	–	–	0.5	–	5	–	–	MST ([1]; 20 mg/kg): 0.5 days and 0.3 days; MST ([5]; 80 mg/kg): 0.7 days and 0.5 days; No. of survivals ([6]; 640 mg/kg): 3 and 2
CCN(CC)C1CCC(Nc2nc(Nc3ccc(Cl)c(Cl)c3)c3ccccc3n2)CC1 (stereo not drawn)	0.3	–	–	–	5	0.5	–	3	–	–	MST ([2]; 320 mg/kg): 14.4 days and 14.9 days; MST ([8]; 160 mg/kg): 17.2 days and 15.6 days; MST ([5]; 80 mg/kg): 2.9 days and 3.1 days; No. of survivals ([10]; 160 mg/kg): 1 and 2
CCN(CC)CCCNc1nc(Nc2ccc(Cl)c(Cl)c2)c2ccccc2n1	0	8.4	4.6 days and 5.2 days	2.8	1	–	–	–	–	–	MST ([3]; 640 mg/kg): 9.8 days and 10.5 days
CSc1ccc(Nc2nc(NCCN3CCCC3)c3ccccc3n2)cc1	0.7	10.3	5.9 days and 4.7 days	3.3	–	–	35	–	0.9 days and 0.3 days	–	Ratio [15]: 2.1
c1ccc2c(NCCCN3CCCC3)nc(Nc3nccs3)nc2c1	–	–	–	–	–	0.3	–	–	–	0.3	MST [3]: 0.9 days; No. of toxic deaths [11]: 3
CCN(CC)C1CCC(Nc2nc(Nc3cc(Cl)cc(Cl)c3)c3ccccc3n2)CC1 (stereo not drawn)	0.3	–	0.7 days and 0.5 days	0.5	5	–	–	–	0.5 days and 0.3 days	–	MST ([2]; 320 mg/kg): 7.9 day and 8.1 MST
CCN1CCCC(Nc2nc(Nc3cc(Cl)cc(Cl)c3)nc3cc(Cl)ccc23)C1 (stereo not drawn)	–	–	–	–	–	0.2	73	–	–	0.4	MST [18]: 1.6 days; Ratio [16]: 73
CCN1CCCC(Nc2nc(Nc3ccc(Cl)c(Cl)c3)nc3cc(Cl)ccc23)C1 (stereo not drawn)	0.1	0.3	–	0.3	–	–	63	–	–	–	Ratio [19]: 1.2
CCN1CCC(CNc2nc(Nc3cc(Cl)cc(Cl)c3)c3ccccc3n2)CC1	–	–	5.7 days and 5.9 days	–	–	0.5	–	–	–	–	MST ([1]; 20 mg/kg): 0.5 days and 0.3 days; MST ([5]; 80 mg/kg): 2.5 days and 2.7 days; No. of survivals ([6]; 640 mg/kg): 3 and 2; No. of survivals ([13]; 320 mg/kg): 3 and 2
CCN(CC)CCNc1nc(Nc2ccc(Cl)c(Cl)c2)c2ccccc2n1	0.2	3.2	–	0.2	–	–	–	–	–	0.9	MST ([18]; 640 mg/kg): 10.3 days and 5.4 days and 5.9 days; MST [20]: 0.2 days
CN1CCCC1CCNc1nc(Nc2ccc(Cl)c(Cl)c2)c2ccccc2n1 (stereo not drawn)	0.3	11.2	6.9 days and 7.1 days	–	1	0.5	–	1	–	–	MST ([5]; 80 mg/kg): 0.5 days and 0.7 days; No. of toxic deaths [14]: 1 and 2; No. of toxic deaths [11]: 2
CCN(CC)CCNc1nc(Nc2ccc(Cl)c(Cl)c2)nc2cc(NCc3ccc(Cl)c(Cl)c3)ccc12	–	–	1.3 days and 1 days and 0.7 days	–	–	–	82	–	0.1 days and 0.2 days and 0.3 days	–	MST ([1]; 20 mg/kg): 0.1 days and 0.2 days and 0.3 days; MST ([2]; 320 mg/kg): 1.7 days and 2 days and 2.5 days; MST [18]: 8.9 days; MST ([5]; 80 mg/kg): 0.3 days and 0.6 days; Ratio [21]: 0.9
Brc1cccc(Nc2nc(NCCN3CCCC3)c3ccccc3n2)c1	0.2	5	4.4 days and 4 days	0.4	–	–	91	–	–	–	MST ([18]; 640 mg/kg): 8.4 days and 8.1 days; Ratio [22]: 0.8
CCN1CCCC(Nc2nc(Nc3cc(Cl)cc(Cl)c3)c3ccccc3n2)C1 (stereo not drawn)	0.4	2.4	0.4 days and 0.3 days	0.2	–	–	–	–	0.2 days and 0.1 days	–	MST ([18]; 640 mg/kg): 4.4 days and 6.3 days
CCN(CC)CCNc1nc(Nc2ccc(Cl)c(Cl)c2)nc2cc([N+](=O)[O-])ccc12	0.3	9.5	0.9 days and 1.1 days	0.9	3	0.3	9.2	–	–	–	MST [3]: 26.9 days; MST [23]: 21.9 days; Ratio [17]: 8.1
FC(F)(F)c1cc(Nc2nc(NCCN3CCCC3)c3ccccc3n2)cc(C(F)(F)F)c1	–	–	–	–	–	0.2	105	–	–	0.2	MST [18]: 1 days; Ratio [16]: 105
CN(C)C1CCC(Nc2nc(Nc3cc(Cl)cc(Cl)c3)c3ccccc3n2)CC1 (stereo not drawn)	-0.2	–	–	1.2	5	0	–	–	–	2.6	–
CCN(CC)Cc1cc(Nc2nc(NCCN3CCCC3)c3ccccc3n2)ccc1O	0.3	–	–	2.1	1	1.7	–	1	–	10.2	No. of toxic deaths [14]: 1; No. of toxic deaths [11]: 1
CSc1ccc(Nc2nc(NCCCN3CCCC3)c3ccccc3n2)cc1	–	–	–	–	–	1	47	–	–	6.8	No. of toxic deaths [11]: 5; Ratio [12]: 1.6
CCN(CC)CCCC(C)Nc1nc(Nc2ccc(O)c(CN(CC)CC)c2)c2ccccc2n1 (stereo not drawn)	0	7.4	3.8 days and 1.6 days	1.4	3	–	–	–	0.6 days and 0.2 days	–	MST [3]: 3.1 days; MST [18]: 5.6 days
